Data set [1] in a line: Plasma half life of hydrolysis of the compound. It is filed as ADME, organism-based. The conditions noted are these: rat.
For data set [2], the species on record is Rattus norvegicus. As to the kind of experiment: Tested for inhibition of cholesterol biosynthesis in rat. It is filed as functional.
Data set [3] addresses T1, Squalene synthase (Rattus norvegicus, UniProt Q02769).
T1 sequence (Q02769 whole entry): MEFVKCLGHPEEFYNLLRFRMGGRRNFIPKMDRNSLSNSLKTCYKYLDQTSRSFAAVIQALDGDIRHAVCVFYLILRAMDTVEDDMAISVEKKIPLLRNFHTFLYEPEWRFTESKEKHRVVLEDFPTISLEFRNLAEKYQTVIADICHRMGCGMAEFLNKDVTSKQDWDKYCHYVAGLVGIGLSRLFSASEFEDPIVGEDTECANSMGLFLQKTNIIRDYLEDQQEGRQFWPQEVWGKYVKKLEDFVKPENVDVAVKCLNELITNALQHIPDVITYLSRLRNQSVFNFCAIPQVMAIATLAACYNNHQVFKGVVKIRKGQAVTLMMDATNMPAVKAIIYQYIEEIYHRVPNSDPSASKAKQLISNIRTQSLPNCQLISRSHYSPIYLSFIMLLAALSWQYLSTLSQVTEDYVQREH
As to the kind of experiment: Tested for its inhibitory activity against rat microsomal […] squalene synthase (SQS).

For data set [4], the species on record is Rattus norvegicus. As to the kind of experiment: Tested for inhibition against rat cholesterol biosynthesis. It is filed as functional.
Data set [5] addresses T2, Squalene synthase (Homo sapiens, UniProt P37268).
T2 sequence (P37268 whole entry): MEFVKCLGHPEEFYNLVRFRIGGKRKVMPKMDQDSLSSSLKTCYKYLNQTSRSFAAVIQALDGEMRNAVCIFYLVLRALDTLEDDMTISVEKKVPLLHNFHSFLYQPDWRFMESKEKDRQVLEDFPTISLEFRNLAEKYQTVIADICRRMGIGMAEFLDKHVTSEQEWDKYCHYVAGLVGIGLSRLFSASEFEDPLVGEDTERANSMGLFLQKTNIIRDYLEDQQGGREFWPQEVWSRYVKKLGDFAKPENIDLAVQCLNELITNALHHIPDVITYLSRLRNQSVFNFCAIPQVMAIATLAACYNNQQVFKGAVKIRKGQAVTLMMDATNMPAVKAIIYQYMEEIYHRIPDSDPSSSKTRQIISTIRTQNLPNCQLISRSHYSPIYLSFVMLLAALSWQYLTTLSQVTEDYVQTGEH
As to the kind of experiment: Tested for its inhibitory activity against human microsomal […] squalene synthase (SQS).

For 14 compounds, half-life, ED50 and Ki results are on record in ChEMBL document CHEMBL1129856, “Novel optimised quinuclidine squalene synthase inhibitors” (Bioorg Med Chem Lett, 1997).

For the compound `C=CCc1cc(CCC(=O)OCc2ccccc2)ccc1C#CC1(O)CN2CCC1CC2` (stereo not drawn), the half-life – broadly, the time needed for the level to fall by half in the phase considered – in data set [1] is ≤ 5 min. For the same compound, the ED50 (commonly the dose at which the effect has come halfway, by size or by number of responders) in the data set filed under Rattus norvegicus [2] is 1.6 mg/kg.

On to `C=CCc1cc(CC(=O)OCC)ccc1C#CC1(O)CN2CCC1CC2` (stereo not drawn), for which affinity on Squalene synthase [3] was put at a Ki of 0.1 µM.

In the data set listed under Rattus norvegicus [4], `C=CCc1cc(CCCCCC(=O)OC)ccc1C#CC1(O)CN2CCC1CC2` (stereo not drawn) returned an ED50 of 1.3 mg/kg. Further, at Squalene synthase [3], affinity was put at a Ki of 0.02 µM.

Consider `C=CCc1cc(CCC(=O)OCCCCCC)ccc1C#CC1(O)CN2CCC1CC2` (stereo not drawn), for which, in data set [1], the half-life is ≤ 5 min. The 50% effective dose (ED50) in the data set listed under Rattus norvegicus [2] turned out to be 1.5 mg/kg.

As for `C=CCc1cc(CCC(N)=O)ccc1C#CC1(O)CN2CCC1CC2` (stereo not drawn), the Ki (usually the dissociation constant of the complex between target and ligand, obtained from inhibition or displacement) on Squalene synthase [3] was > 0.25 µM.

In the case of `C=CCc1cc(CCC(=O)N(CC)CC)ccc1C#CC1(O)CN2CCC1CC2` (stereo not drawn), at Squalene synthase [3], the inhibition constant (Ki) was > 0.25 µM.

As to `C=CCc1cc(CCC#N)ccc1C#CC1(O)CN2CCC1CC2` (stereo not drawn), on Squalene synthase [3], the inhibitory constant (Ki) was > 0.25 µM.

For the compound `C=CCc1cc(CCC(=O)OCC)ccc1C#CC1(O)CN2CCC1CC2` (stereo not drawn), in data set [1], the half-life is ≤ 5 min. For the same compound, in the data set listed under Rattus norvegicus [4], the 50% effect level (ED50) was put at a dose of 1.3 mg/kg. The inhibition constant Ki came to 0.043 µM on Squalene synthase [5] and 0.006 µM at Squalene synthase [3].

In the data set filed under Rattus norvegicus [4], `C=CCc1cc(CCC(=O)OC)ccc1C#CC1(O)CN2CCC1CC2` (stereo not drawn) came in with an ED50 of 1.3 mg/kg. In addition, the Ki on Squalene synthase [3] came out at 0.02 µM.

In the case of `C=CCc1cc(CCCC(=O)OC)ccc1C#CC1(O)CN2CCC1CC2` (stereo not drawn), in the data set filed under Rattus norvegicus [4], it took a dose of 1.3 mg/kg to reach the 50% effect level (ED50). Besides, the Ki on Squalene synthase [3] was 0.002 µM.

For the compound `C=CCc1cc(CCC(=O)NC)ccc1C#CC1(O)CN2CCC1CC2` (stereo not drawn), the Ki at Squalene synthase [3] was > 0.25 µM.

`C=CCc1cc(CCCCC(=O)OC)ccc1C#CC1(O)CN2CCC1CC2` (stereo not drawn) came in with an ED50 in the data set listed under Rattus norvegicus [4] of 1.3 mg/kg. This compound gave an inhibition constant Ki on Squalene synthase [3] of 0.008 µM.

In the case of `C=CCc1cc(CCC(=O)O)ccc1C#CC1(O)CN2CCC1CC2.Cl` (stereo not drawn), in the data set filed under Rattus norvegicus [2], the ED50 was 1.8 mg/kg.

Regarding `C=CCc1cc(CCC(=O)O)ccc1C#C[C@@]1(O)CN2CCC1CC2.Cl` (single isomer, unassigned), the ED50 in the data set filed under Rattus norvegicus [2] was 0.9 mg/kg. Compared with the last compound, the ED50 is about 2-fold lower.
